Experimental data reported in patent US20210317113A1, “1,2,3-TRIAZOLE DERIVATIVES AND USES THEREOF” (Alxerion Biotech LLC, priority 2020, published 2021).
Where two headings read alike, the source gives them in different places.

Key:
[1] = test system: Non-Small Lung Cancer Cells (NSLCs); assay: Cancer migration (wound healing) assay; assay type: cell-based; settings: for concentration at which cell migration was completely impaired: 20 mM calcium medium (FIG. 3)
Source text: The ability of 1,2,3-triazole derivatives according to the disclosure to inhibit cancer cell migration and proliferation in vitro can be measured, e.g., by a wound healing assay (Rodriguez et al., in Cell Migration: Developmental Methods and Protocols, Web et al., Guan ed. Humana Press 294, 23-29). This assay is based on the observation that, upon the creation of an artificial gap on a confluent cancer cell monolayer, the cells on the edge of the created gap will start migrating and proliferating until new cell-cell contacts are established (EXAMPLE 3).
Non-Small Lung Cancer Cells (NSLCs) migration rate was assessed in an in vitro wound healing assay. This assay is based on the observation that, upon the creation of an artificial gap on a confluent cell monolayer, the cells on the edge of the created gap will start migrating and proliferating until new cell-cell contacts are established.
A confluent cell layer is a prerequisite for starting this assay. Gap formation is done manually with a scrapper and cell proliferation and migration is determined recording a time-lapse video for 20 hr. with a time interval of 30 min. The microscopic pictures are manually analyzed for obtaining information about the proliferation and migration characteristics of the cultured cells and the image analysis detects the cell covered area.
NSLCs were cultured in Eagle's Minimum Essential Medium (ATCC-formulated medium, Catalog No. 30-2003) containing fetal bovine serum at 10% during several periods. Wound healing assays with supplemented medium containing 1,2,3-triazole derivatives were performed to evaluate the inhibitory effect on proliferation and migration of cancer cells.
In order to simulate as close as possible the in vivo cancer microenvironment, human plasma and calcium were added to the cell culture system to provide the hemostatic factors normally present in the cancer stroma. The previous day, cells were seeded with 10% FBS at a number that would provide 90% confluence the next day. On Day 0, a scratch (“a wound”) was performed in the middle of the well and the 10% FBS medium was replaced with 20% plasma, 20 mM calcium medium, with or without Derivative 1. 10% FBS medium was used as control in these experiments. “Wound healing” or closure of the scratch was assessed over a period of 4 days, and cell number in the wound area was quantified for each condition. Increasing amount of Derivative 1 (LTI6) was used to attain a dose-response curve.
The cell function effect of Derivative 1 was compared with Tranexamic Acid (TNA) and Caproic Acid (CA), commercially available and widely used anti-metastasis drugs.

[2] = test system: Non-Small Lung Cancer Cells (NSLCs); assay: Trypan Blue Exclusion Test of cancer cell viability; assay type: cell-based; settings: for IC50: defined in text as concentration of derivative causing greater than 90% of the cells to die, read-out: Anti-Cancer Activity (Trypan Blue Exclusion Assay) IC50
Method: The ability of 1,2,3-triazole derivatives according to the disclosure to kill cancer cells can be measured, e.g., by Trypan Blue Exclusion Assay which measured cell death by starvation due to the presence of the derivative (see EXAMPLE 4). The results obtained using this assay with some representative 1,2,3-triazole derivatives according to the disclosure are shown below in Table 4.
The effect of Derivative 1 on cancer cell viability was determined using the Trypan Blue Exclusion Test (Stober (2001) (Curr. Protoc. Immunol., May; Appendix 3:Appendix 3B. doi: 10.1002/0471142735.ima03bs21). The viability of Non-Small Lung Cancer Cells (NSLCs) was assessed over a period of 15 days after the promotion of coagulation with or without 200 μM of 1,2,3-triazole derivative 1 and with or without 2% human plasma. Fresh 2% FBS medium corresponding to each condition was added every 3 days. Cell death was analyzed using Trypan blue staining. 2% FBS medium was used as control. Some representative results are shown in FIGS. 4A-4F.

[3] = test system: fibrinolysis mediated by tPA (plasminogen activation by tPA); assay: Fibrinolytic assay: one-step spectrophotometric clot lysis in human plasma; assay type: biochemical; settings: for IC50: concentration at which 50% of total fibrinolysis mediated by tPA is inhibited, human ACD plasma, clot triggered by TF, absorbance 340 nm, read-out: Anti-fibrinolytic (SERPIN) Activity IC50; for inhibition of fibrinolysis mediated by tPA (in words): different concentrations, FIGS. 2B-2D
Method: Fibrinolytic activity in human plasma was determined by a one-step spectrophotometric method (Gidron et al. (1978) J. Clin. Pathol. 31(1):54-57) with minor modifications (see EXAMPLE 2). In this method, fibrin clot formation in anticoagulant citrate dextrose (ACD) plasma samples obtained from healthy volunteers is triggered by tissue factor (TF) and can be quantified by spectrometry as a significant increase in basal plasma absorbance at 340 nm.
As shown in FIGS. 2A-2D, in the absence of tPA, plasma absorbance remains permanently elevated.
Fibrinolytic activity in human plasmas in the presence of derivatives according to the disclosure was determined by a one-step spectrophotometric method.
Fibrin clot formation in the anticoagulant acid citrate dextrose (ACD)-treated plasma obtained from healthy volunteers is triggered by tissue factor (TF) (Thromborel S, Siemens Healthineers) and quantifies by spectrophotometry at 340 nm (using a Molecular Devices SpectraMax® M2e Multimode Microplate Reader). When recombinant human Tissue Plasminogen Activator (tPA, final concentration of 5.2 μg/ml) is simultaneously added, fibrinolysis of the clot can be determined.
Fresh blood was extracted from healthy volunteers. ACD, to reach a 10% concentration, was instantly added to the extracted blood, to prevent any unwanted coagulation. After that, blood was centrifuged for 15 min at 1,000 g. Plasma was clearly separated from red blood cells. 3 mL aliquots of aspirated plasma were immediately frozen at −20° C.
4 mL of ddH2O was added to a vial of Thromborel S and mixed thoroughly for 2 min. and left at 4° C. 500 μL TF aliquots were used for each experiment.
Representative derivatives of the present disclosure (Nos. 1, 5, and 7) were diluted in DMSO (those with Boc) or ddH2O (those with HCl) to a final concentration of 10 mM. A solution containing 1 M Tris HCl, pH 7.5 (Fisher BioReagent) (Buffer A), 0.110 g of CaCl2) in 10 mL of ddH2O (Buffer B), and tPA (Abcam, 1.3 mg/mL added into the diluted derivative solution, final concentration in serum was 5.2 μg/mL), and the derivative was prepared in a total volume of 75 μL and added to untreated, flat, clear Costar® 96-well plates in triplicate. Absorbance at 340 nm at 37° C. for 30 min was recorded every 15 sec. The plates were shaken every 3 sec in between readings. Controls for basal plasma absorbance, basal coagulation absorbance and basal fibrinolytic activity absorbance were performed in every assay.
FIG. 2A show the results a control experiment displaying the ability of TF to cause fibrin clot formation in the absence and presence of t-PA. TF was able to cause fibrin clot formation evaluated as a significant increase of the basal plasma absorbance at 340 nm.

[4] = 96 h, NSLCs, 20% plasma, 20 mM calcium medium, wound closure over 4 days (FIG. 3), read-out: IC50 from dose response curve, cell migration
[5] = wound healing assay, dose-response curve, read-out: Anti-Cancer Activity (Inhibition of Cancer Cell Migration) IC50

IC50 [1, 5] [µM]	IC50 [2] [µM]	IC50 [3] [µM]	SMILES	other results
120			O=c1[nH]nc(-c2cn(C3CCNCC3)nn2)o1 [Derivative 1]	IC50 [1, 4]: 96.1 µM; concentration at which cell migration was completely impaired ([1]; NSLCs, 20% plasma): 100 µM; potency relative to CA in inhibition of migration of cancer cells ([1]; from IC50 values, vs Caproic Acid): > 10 ×; potency relative to TNA in inhibition of migration of cancer cells ([1]; from IC50 values, vs Tranexamic Acid): > 4 ×; cell death by Trypan blue staining after 7 days (in words) ([2]; 200 μM, plasma conditions, 7 days, vs plasma alone (FIG. 4C)): even more significant; cell death by Trypan blue staining after 15 days (in words) ([2]; 200 μM, plasma conditions, 15 days, vs FBS and plasma alone (FIG. 4F)): increased cell death; IC50 ([2]; listed as 1): 250 µM; IC50 ([3]; listed as 1): 50 µM; inhibition of fibrinolysis mediated by tPA (in words) [3]: completely inhibit fibrinolysis
350	550	200	NCCCn1cc(-c2n[nH]c(=O)o2)nn1 [Derivative 2]	
230	410	180	NNC(=O)c1cn(C2CCNCC2)nn1 [Derivative 3]	
650	800	375	NCCCn1cc(-c2noc(=O)[nH]2)nn1 [Derivative 6]	
270	415	125	NC(NO)c1cn(C2CCNCC2)nn1 (stereo not shown) [Derivative 7]	inhibition of fibrinolysis mediated by tPA (in words) [3]: completely inhibit fibrinolysis
250	370	150	N/C(Cc1cn(C2CCNCC2)nn1)=N/O [Derivative 10]	
250	430	58	NNC(=O)c1cn(C2CCC(N)CC2)nn1 (stereo not shown) [Derivative 16]	
650	1350	320	NC1CCC(n2cc(-c3n[nH]c(=O)o3)nn2)CC1 (stereo not shown) [Derivative 17]	
345	550	250	NCCn1cc(-c2n[nH]c(=O)o2)nn1 [Derivative 18]	
610	880	375	NC1CCC(n2cc(-c3noc(=O)[nH]3)nn2)CC1 (stereo not shown) [Derivative 19]	
87	210	15	NCCn1cc(-c2noc(=O)[nH]2)nn1 [Derivative 20]	
100	150	35	O=C(O)c1nnc(-c2cn(C3CCNCC3)nn2)o1 [Derivative 21]	
89	210	35	NC1CCC(n2cc(-c3nnc(C(=O)O)o3)nn2)CC1 (stereo not shown) [Derivative 23]	
420	610	205	N/C(=N\O)c1cn(C2CCC(N)CC2)nn1 (stereo not shown) [Derivative 25]	
310	480	189	N/C(Cc1cn(C2CCC(N)CC2)nn1)=N/O (stereo not shown) [Derivative 27]	
129	218	67	NC1CCC(n2cc(C(=O)O)nn2)CC1 (stereo not shown) [Derivative 29]	

Second part, the compound before the results:

SMILES	IC50 [1, 5] [µM]	IC50 [2] [µM]	IC50 [3] [µM]	other results
CCCCCC(=O)O [CA, Caproic Acid, reference compound]				IC50 ([1]; 96 h, read-out: IC50 from dose response curve, cell migration): 1340 µM; concentration at which cell migration was completely impaired ([1]; NSLCs, 20% plasma): 1400 µM
NCCCn1cc(C(=O)NN)nn1 [Derivative 4]	1200	2100	800	
O=c1[nH]c(-c2cn(C3CCNCC3)nn2)no1 [Derivative 5]				IC50 ([1]; wound healing assay, dose-response curve, listed as 5, read-out: Anti-Cancer Activity (Inhibition of Cancer Cell Migration) IC50): 90 µM; IC50 ([2]; listed as 5): 150 µM; IC50 ([3]; listed as 5): 35 µM; inhibition of fibrinolysis mediated by tPA (in words) [3]: completely inhibit fibrinolysis
NCCCn1cc(/C(N)=N/O)nn1 [Derivative 8]	500	750	350	
NCCCn1cc(C/C(N)=N\O)nn1 [Derivative 11]	510	680	325	
NCCCn1cc(C(=O)O)nn1 [Derivative 13]	125	170	75	
NCCCn1ccnn1 [Derivative 14]	250	450	130	
NCCn1cc(C(=O)NN)nn1 [Derivative 15]	104	815	24	
NCCCn1cc(-c2nnc(C(=O)O)o2)nn1 [Derivative 22]	120	210	50	
NCCn1cc(-c2nnc(C(=O)O)o2)nn1 [Derivative 24]	620	810	315	
NCCn1cc(/C(N)=N/O)nn1 [Derivative 26]	258	470	153	
NCCn1cc(C/C(N)=N\O)nn1 [Derivative 28]	69	140	23	
NCCn1cc(C(=O)O)nn1 [Derivative 30]	520	710	370	
NC1CCC(n2ccnn2)CC1 (stereo not shown) [Derivative 31]	190	310	74	
NC[C@H]1CC[C@H](C(=O)O)CC1 [TNA, Tranexamic Acid, reference compound]				IC50 [1, 4]: 438 µM; concentration at which cell migration was completely impaired ([1]; NSLCs, 20% plasma): 250 µM
